Results taken from patent publication US9708368B2, “Linear peptide antibiotics” (priority 2012, dated 2017).
Converted amounts (≈) assume the structure as drawn. Numbered stars: 1 amine (or outer) side, 2 acyl side, 3 side chain; on linkers, the order of the positions; unused ones are H or OH. Square brackets hold non-standard residues; d marks the D form. Peptide text beside a SMILES is read from it. * marks the point of attachment. ξ: configuration not given here. boroAla((+)-pinanediol) = C[C@H](N*)B1O[C@@H]2C[C@@H]3C[C@@H](C3(C)C)[C@]2(C)O1; Biphenylcarbonyl(4'-Bu) = CCCCc1ccc(-c2ccc(C(=O)*)cc2)cc1; X1 = C[C@H](N*)B1OC2C[C@@H]3C[C@@H](C3(C)C)[C@]2(C)O1; ξ3Amino2oxobutanoyl = CC(N[*:1])C(=O)C(=O)[*:2]; X17 = O=C(/C=C/C=C/C12CC3CC(CC(C3)C1)C2)*; X15 = CCCCCCN1CCC(c2ccc(C(=O)*)cc2)CC1; X4 = CCCCc1ccc(-c2c[nH]c(C(=O)*)c2)cc1; X13 = CCCCN1CCC(c2ccc(C(=O)*)cc2)CC1; X19 = O=C(CCCCC12CC3CC(CC(C3)C1)C2)*; X21 = CCCCc1ccc(-c2ncc(C(=O)*)s2)cc1; X10 = CCCCc1ccc(-c2ccc(N*)cc2)cc1; Thr(3ξ) = CC(O)[C@H](N)C(=O)O; X3 = CCCCCCCCCCCCS(=O)(=O)*; X6 = C[C@@H](N*)C(=O)C(N)=O; X8 = C[C@H](N*)C(=O)C(N)=O; 4Amb = NCc1ccc(C(=O)O)cc1; boroAla = C[C@H](N*)B(O)O; Dab = NCC[C@H](N)C(=O)O; Dap = NC[C@H](N)C(=O)O; X14 = CCCCc1ccc(*)cc1; CO = O=C([*:1])[*:2]; ξK = NCCCCC(N)C(=O)O; βAla = NCCC(=O)O

Assays:
[1] = tested on: Escherichia coli strain MC4100 IMP-4213, which harbors an LptD mutation; conditions: Method B; E. coli MC4100 IMP-4213 (LptD mutation); 35° C., 22 hours
Outline: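 Two-fold serial dilutions of compound inoculated at final OD600 0.0005, incubated static at 35 °C for 22 h, and growth read visually.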

[2] = tested on: methicillin resistant Staphylococcus aureus (MRSA) strain USA300 (NRS384); conditions: Method B, 35° C., 22 hours
S. aureus SPase = S. aureus SPase (Staphylococcus aureus, UniProt P0A070); assay: biochemical
E. coli SPase = E. coli SPase (Escherichia coli, UniProt P00803); assay: Biochemical SPase activity assay (fluorogenic peptide substrate), E. coli enzyme
Sequence of E. coli SPase (P00803 whole entry): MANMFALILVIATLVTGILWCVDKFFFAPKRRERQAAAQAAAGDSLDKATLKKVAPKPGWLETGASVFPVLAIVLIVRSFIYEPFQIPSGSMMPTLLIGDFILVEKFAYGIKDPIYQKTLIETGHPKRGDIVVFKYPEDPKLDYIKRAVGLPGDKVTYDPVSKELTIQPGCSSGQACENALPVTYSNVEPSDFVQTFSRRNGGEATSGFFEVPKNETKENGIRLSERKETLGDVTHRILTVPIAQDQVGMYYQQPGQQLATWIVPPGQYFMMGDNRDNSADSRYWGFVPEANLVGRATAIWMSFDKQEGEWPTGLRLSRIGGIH

Sequence of S. aureus SPase (P0A070 whole entry): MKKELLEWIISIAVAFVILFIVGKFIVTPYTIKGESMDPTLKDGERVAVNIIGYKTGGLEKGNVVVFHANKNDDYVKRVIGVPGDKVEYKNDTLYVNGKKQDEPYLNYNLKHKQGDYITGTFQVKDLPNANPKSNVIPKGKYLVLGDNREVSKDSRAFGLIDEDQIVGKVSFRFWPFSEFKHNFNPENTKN

Row | Compound | MIC (μg/mL) E. coli [1] [µg/mL] | MIC (μg/mL) S. aureus [2] [µg/mL] | IC50 (S. aureus SPase) [nM] | IC50 (E. coli SPase) [nM]
1 | C[C@H](NC(=O)[C@H](CCCCN)NC(=O)[C@H](C)NC(=O)[C@@H](NC(=O)[C@H](CCN)NC(=O)CCCCC12CC3CC(CC(C3)C1)C2)[C@@H](C)O)B1OC2C[C@@H]3C[C@@H](C3(C)C)[C@]2(C)O1 (some centres unmarked) [Compound 239] (X19-[Dab]TAK-X1) | 2 (≈ 2.38 µM) | 0.71 (≈ 0.843 µM) | 670 | 17
2 | C[C@H](NC(=O)[C@H](CCCCN)NC(=O)[C@H](C)NC(=O)[C@@H](NC(=O)[C@H](CCN)NC(=O)/C=C/C=C/C12CC3CC(CC(C3)C1)C2)[C@@H](C)O)B1O[C@@H]2C[C@@H]3C[C@@H](C3(C)C)[C@]2(C)O1 [Compound 240] (X17-[Dab]TAK-{boroAla((+)-pinanediol)}) | 4 (≈ 4.77 µM) | 0.71 (≈ 0.847 µM) | 88 | 28
3 | CCCCc1ccc(-c2ccc(C(=O)N[C@@H](CCN)C(=O)N[C@H](C(=O)N[C@@H](C)C(=O)N[C@@H](CCCCN)C(=O)N[C@@H](C)B3OC4C[C@@H]5C[C@@H](C5(C)C)[C@]4(C)O3)[C@@H](C)O)c(C)c2)cc1 (some centres unmarked) [Compound 241] | 0.18 (≈ 0.206 µM) | 0.25 (≈ 0.286 µM) | 42 | 2.1
4 | CCCCc1ccc(-c2cnc(C(=O)N[C@@H](CCN)C(=O)N[C@H](C(=O)N[C@@H](C)C(=O)N[C@@H](CCCCN)C(=O)N[C@@H](C)B3OC4C[C@@H]5C[C@@H](C5(C)C)[C@]4(C)O3)[C@@H](C)O)nc2)cc1 (some centres unmarked) [Compound 242] | 11 (≈ 12.8 µM) | 1.4 (≈ 1.62 µM) | 54 | 21
5 | CCCCc1ccc(-c2ccc(CC(=O)N[C@@H](CCN)C(=O)N[C@H](C(=O)N[C@@H](C)C(=O)N[C@@H](CCCCN)C(=O)N[C@@H](C)B3OC4C[C@@H]5C[C@@H](C5(C)C)[C@]4(C)O3)[C@@H](C)O)cc2)cc1 (some centres unmarked) [Compound 243] | 2 (≈ 2.29 µM) | 0.5 (≈ 0.572 µM) | 80 | 10
6 | CCCCN1CCC(c2ccc(C(=O)N[C@@H](CCN)C(=O)N[C@H](C(=O)N[C@@H](C)C(=O)N[C@@H](CCCCN)C(=O)N[C@@H](C)B3O[C@@H]4C[C@@H]5C[C@@H](C5(C)C)[C@]4(C)O3)[C@@H](C)O)cc2)CC1 [Compound 244] (X13-[Dab]TAK-{boroAla((+)-pinanediol)}) | 64 (≈ 73.8 µM) | 45 (≈ 51.9 µM) | 1100 | 350
7 | CCCCCCN1CCC(c2ccc(C(=O)N[C@@H](CCN)C(=O)N[C@H](C(=O)N[C@@H](C)C(=O)N[C@@H](CCCCN)C(=O)N[C@@H](C)B3O[C@@H]4C[C@@H]5C[C@@H](C5(C)C)[C@]4(C)O3)[C@@H](C)O)cc2)CC1 [Compound 246] (X15-[Dab]TAK-{boroAla((+)-pinanediol)}) | 64 (≈ 71.5 µM) | 23 (≈ 25.7 µM) | 290 | 55
8 | CCCCc1ccc(-c2c[nH]c(C(=O)N[C@@H](CCN)C(=O)N[C@H](C(=O)N[C@@H](C)C(=O)N[C@@H](CCCCN)C(=O)N[C@@H](C)B3O[C@@H]4C[C@@H]5C[C@@H](C5(C)C)[C@]4(C)O3)[C@@H](C)O)c2)cc1 [Compound 247] (X4-[Dab]TAK-{boroAla((+)-pinanediol)}) | 0.5 (≈ 0.589 µM) | 0.5 (≈ 0.589 µM) | 110 | 17
9 | CCCCc1ccc(-c2ncc(C(=O)N[C@@H](CCN)C(=O)N[C@H](C(=O)N[C@@H](C)C(=O)N[C@@H](CCCCN)C(=O)N[C@@H](C)B3OC4C[C@@H]5C[C@@H](C5(C)C)[C@]4(C)O3)[C@@H](C)O)s2)cc1 (some centres unmarked) [Compound 248] (X21-[Dab]TAK-X1) | 0.25 (≈ 0.288 µM) | 0.25 (≈ 0.288 µM) | 170 | 11
10 | CCCCc1ccc(Nc2ccc(C(=O)N[C@@H](CCN)C(=O)N[C@H](C(=O)N[C@@H](C)C(=O)N[C@@H](CCCCN)C(=O)N[C@@H](C)B3OC4C[C@@H]5C[C@@H](C5(C)C)[C@]4(C)O3)[C@@H](C)O)cc2)cc1 (some centres unmarked) [Compound 249] | 1 (≈ 1.14 µM) | 0.35 (≈ 0.4 µM) | 160 | 17
11 | CCCCc1ccc(NCc2ccc(C(=O)N[C@@H](CCN)C(=O)N[C@H](C(=O)N[C@@H](C)C(=O)N[C@@H](CCCCN)C(=O)N[C@@H](C)B3OC4C[C@@H]5C[C@@H](C5(C)C)[C@]4(C)O3)[C@@H](C)O)cc2)cc1 (some centres unmarked) [Compound 250] ({X14-4Amb}-[Dab]TAK-X1) | 0.71 (≈ 0.799 µM) | 0.35 (≈ 0.394 µM) | 110 | 8.4
12 | CCCCc1ccc(-c2ccc(C(=O)NCCC(=O)N[C@@H](CCCCN)C(=O)N[C@H](C(=O)N[C@@H](C)C(=O)N[C@@H](CC(N)=O)C(=O)NC(C)C(=O)C(=O)NC)[C@@H](C)O)cc2)cc1 (some centres unmarked) [Compound 252] ({Biphenylcarbonyl(4'-Bu)-βAla}-KTAN[ξ3Amino2oxobutanoyl]-NHMe) | >64 | 5 (≈ 5.87 µM) | 8.7 | 3000
13 | CCCCc1ccc(-c2ccc(C(=O)NC(CCCCN)C(=O)N[C@@H](CCCCN)C(=O)N[C@@H](C)C(=O)N[C@@H](CC(C)C)C(=O)N[C@@H](C)C(=O)C(N)=O)cc2)cc1 (some centres unmarked) [Compound 253] ({Biphenylcarbonyl(4'-Bu)}-[ξK]KAL-X8) | 11 (≈ 13.9 µM) | 8 (≈ 10.1 µM) | 2100 | 4800
14 | CCCCc1ccc(-c2ccc(C(=O)N[C@@H](CCCCN)C(=O)N[C@@H](CCCCN)C(=O)N[C@@H](C)C(=O)N[C@@H](CC(C)C)C(=O)N[C@H](C)C(=O)C(N)=O)cc2)cc1 [Compound 254] ({Biphenylcarbonyl(4'-Bu)}-KKAL-X6) | 11 (≈ 13.9 µM) | 8 (≈ 10.1 µM) | 660 | 1200
15 | CCCCc1ccc(-c2ccc(C(=O)N[C@@H](CN)C(=O)N[C@@H](CCC(=O)N[C@H](CC(=O)O)C(=O)O)C(=O)N[C@@H](C)C(=O)N[C@@H](CCCCN)C(=O)N[C@@H](C)B3OC4C[C@@H]5C[C@@H](C5(C)C)[C@]4(C)O3)cc2)cc1 (some centres unmarked) [Compound 259] ({Biphenylcarbonyl(4'-Bu)}-[Dap]E(dD)AK-X1) | 4 (≈ 4.04 µM) | 11 (≈ 11.1 µM) | 32 | 2.6
16 | CCCCc1ccc(-c2ccc(C(=O)N[C@@H](CN)C(=O)N[C@@H](CCC(=O)N[C@H](C)C(=O)O)C(=O)N[C@@H](C)C(=O)N[C@@H](CCCCN)C(=O)N[C@@H](C)B3O[C@@H]4C[C@@H]5C[C@@H](C5(C)C)[C@]4(C)O3)cc2)cc1 [Compound 260] ({Biphenylcarbonyl(4'-Bu)}-[Dap]E(dA)AK-{boroAla((+)-pinanediol)}) | 1 (≈ 1.06 µM) | 4 (≈ 4.23 µM) | 83 | 5.6
17 | CCCCc1ccc(-c2ccc(C(=O)N[C@@H](CCCCN)C(=O)N[C@@H](CCC(=O)OCC)C(=O)N[C@@H](C)C(=O)N[C@@H](CCCCN)C(=O)N[C@@H](C)B3O[C@@H]4C[C@@H]5C[C@@H](C5(C)C)[C@]4(C)O3)cc2)cc1 [Compound 261] ({Biphenylcarbonyl(4'-Bu)}-KE(OEt)AK-{boroAla((+)-pinanediol)}) | 0.79 (≈ 0.837 µM) | 0.71 (≈ 0.752 µM) | 280 | 41
18 | CCCCc1ccc(-c2ccc(OC(=O)N[C@@H](CCCCN)C(=O)N[C@H](C(=O)N[C@@H](C)C(=O)N[C@@H](CC(N)=O)C(=O)N[C@@H](C)B3OC4C[C@@H]5C[C@@H](C5(C)C)[C@]4(C)O3)[C@@H](C)O)cc2)cc1 (some centres unmarked) [Compound 262] | 8 (≈ 8.99 µM) | 2.8 (≈ 3.15 µM) | 15 | 37
19 | CCCCc1ccc(-c2ccc(NC(=O)N[C@@H](CCCCN)C(=O)N[C@H](C(=O)N[C@@H](C)C(=O)N[C@@H](CC(N)=O)C(=O)N[C@@H](C)B3OC4C[C@@H]5C[C@@H](C5(C)C)[C@]4(C)O3)[C@@H](C)O)cc2)cc1 (some centres unmarked) [Compound 263] ({X10-CO}-KTAN-X1) | 2 (≈ 2.25 µM) | 0.71 (≈ 0.799 µM) | 72 | 88
20 | CCCCCCCCCCCCS(=O)(=O)N[C@@H](CCCCN)C(=O)N[C@H](C(=O)N[C@@H](C)C(=O)N[C@@H](CCCCN)C(=O)N[C@@H](C)B(O)O)C(C)O (some centres unmarked) [Compound 265] (X3-K[Thr(3ξ)]AK-boroAla) | 4 (≈ 5.33 µM) | 0.13 (≈ 0.173 µM) | 17 | 120
21 | CCCCc1ccc(-c2ccc(CN[C@@H](CCN)C(=O)N[C@H](C(=O)N[C@@H](C)C(=O)N[C@@H](CCCCN)C(=O)N[C@@H](C)B3OC4C[C@@H]5C[C@@H](C5(C)C)[C@]4(C)O3)[C@@H](C)O)cc2)cc1 (some centres unmarked) [Compound 266] | 1 (≈ 1.18 µM) | 0.5 (≈ 0.591 µM) | 160 | 22
22 | CCCCc1ccc(-c2ccc(C(=O)N[C@@H]3CN[C@H](C(=O)N[C@H](C(=O)N[C@@H](C)C(=O)N[C@@H](CCCCN)C(=O)N[C@@H](C)B4OC5C[C@@H]6C[C@@H](C6(C)C)[C@]5(C)O4)[C@@H](C)O)C3)cc2)cc1 (some centres unmarked) [Compound 268] | 16 (≈ 18.4 µM) | 1 (≈ 1.15 µM) | 81 | 1600
23 | CCCCc1ccc(-c2ccc(C(=O)N[C@H]3CN[C@H](C(=O)N[C@H](C(=O)N[C@@H](C)C(=O)N[C@@H](CCCCN)C(=O)N[C@@H](C)B4OC5C[C@@H]6C[C@@H](C6(C)C)[C@]5(C)O4)[C@@H](C)O)C3)cc2)cc1 (some centres unmarked) [Compound 269] | 8 (≈ 9.18 µM) | 0.5 (≈ 0.573 µM) | 340 | 1800
